What follows are compounds tested on BV-173. Conditions: 72 h.
Procedure, shortened: (§1)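 Fifteen myeloid leukaemia lines in RPMI 1640 were treated for 72 h at 37 °C and 5% CO2 with five tenfold doses from 1 to 10,000 nM, in duplicate. ATP luminescence was normalised to vehicle and to a positive control at 10 µM, then fitted with a four-parameter log-logistic model. The IC50 came from these fits.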

Row | Compound | IC50 (cell viability) [µM]
1 | CCCCN1C[C@H](O)[C@@H](O)[C@H](O)[C@H]1CO [Miglustat] | > 10
2 | C=C(C=NNC(=N)N)NNC(=N)N [Mitoguazone] | 1.44
3 | CCCCC/C=C\C/C=C\C/C=C\C/C=C\CCCCN1C(=O)C=CC1=O [N-Arachidonylmaleimide] | > 10
4 | CCCCCCCCCCC[C@@H](C[C@@H]1OC(=O)[C@H]1CCCCCC)OC(=O)[C@H](CC(C)C)NC=O [Orlistat] | > 10
5 | COc1ccc(C(=O)Nc2c(Cl)cncc2Cl)cc1OC1CCCC1 [Piclamilast] | > 10
6 | COc1cc(/C=C/C(=O)N2CCC=CC2=O)cc(OC)c1OC [Piperlongumine] | 1.62
7 | O=C(NNc1ccccc1)c1ccncc1 [PluriSln 1] | > 10
8 | CC(C)c1nc(CN(C)C(=O)N[C@H](C(=O)N[C@@H](Cc2ccccc2)C[C@H](O)[C@H](Cc2ccccc2)NC(=O)OCc2cncs2)C(C)C)cs1 [Ritonavir] | 6.62
9 | C=C(C)[C@H]1Cc2c(ccc3c2O[C@@H]2COc4cc(OC)c(OC)cc4[C@@H]2C3=O)O1 [Rotenone] | 0.08
10 | Oc1ccc(Nc2nc(-c3ccc(Cl)cc3)cs2)cc1 [SKI II] | 1.54
11 | O=C(O)c1cc(N=Nc2ccc(S(=O)(=O)Nc3ccccn3)cc2)ccc1O [Sulfasalazine] | > 10

These compounds were tested on HEL. Conditions: 72 h.
Procedure, shortened: as §1

Row | Compound | IC50 (cell viability) [µM]
12 | CCCCN1C[C@H](O)[C@@H](O)[C@H](O)[C@H]1CO [Miglustat] | > 10
13 | C=C(C=NNC(=N)N)NNC(=N)N [Mitoguazone] | 9.12
14 | CCCCC/C=C\C/C=C\C/C=C\C/C=C\CCCCN1C(=O)C=CC1=O [N-Arachidonylmaleimide] | > 10
15 | CCCCCCCCCCC[C@@H](C[C@@H]1OC(=O)[C@H]1CCCCCC)OC(=O)[C@H](CC(C)C)NC=O [Orlistat] | > 10
16 | COc1ccc(C(=O)Nc2c(Cl)cncc2Cl)cc1OC1CCCC1 [Piclamilast] | > 10
17 | COc1cc(/C=C/C(=O)N2CCC=CC2=O)cc(OC)c1OC [Piperlongumine] | 3.03
18 | O=C(NNc1ccccc1)c1ccncc1 [PluriSln 1] | > 10
19 | CC(C)c1nc(CN(C)C(=O)N[C@H](C(=O)N[C@@H](Cc2ccccc2)C[C@H](O)[C@H](Cc2ccccc2)NC(=O)OCc2cncs2)C(C)C)cs1 [Ritonavir] | > 10
20 | C=C(C)[C@H]1Cc2c(ccc3c2O[C@@H]2COc4cc(OC)c(OC)cc4[C@@H]2C3=O)O1 [Rotenone] | 0.168
21 | Oc1ccc(Nc2nc(-c3ccc(Cl)cc3)cs2)cc1 [SKI II] | 3.22
22 | O=C(O)c1cc(N=Nc2ccc(S(=O)(=O)Nc3ccccn3)cc2)ccc1O [Sulfasalazine] | > 10

These compounds were tested on HL-60. Conditions: 72 h.
Procedure, shortened: as §1

Row | Compound | IC50 (cell viability) [µM]
23 | CCCCN1C[C@H](O)[C@@H](O)[C@H](O)[C@H]1CO [Miglustat] | > 10
24 | C=C(C=NNC(=N)N)NNC(=N)N [Mitoguazone] | 7.01
25 | CCCCC/C=C\C/C=C\C/C=C\C/C=C\CCCCN1C(=O)C=CC1=O [N-Arachidonylmaleimide] | > 10
26 | CCCCCCCCCCC[C@@H](C[C@@H]1OC(=O)[C@H]1CCCCCC)OC(=O)[C@H](CC(C)C)NC=O [Orlistat] | > 10
27 | COc1ccc(C(=O)Nc2c(Cl)cncc2Cl)cc1OC1CCCC1 [Piclamilast] | > 10
28 | COc1cc(/C=C/C(=O)N2CCC=CC2=O)cc(OC)c1OC [Piperlongumine] | 2.36
29 | O=C(NNc1ccccc1)c1ccncc1 [PluriSln 1] | 5.48
30 | CC(C)c1nc(CN(C)C(=O)N[C@H](C(=O)N[C@@H](Cc2ccccc2)C[C@H](O)[C@H](Cc2ccccc2)NC(=O)OCc2cncs2)C(C)C)cs1 [Ritonavir] | > 10
31 | C=C(C)[C@H]1Cc2c(ccc3c2O[C@@H]2COc4cc(OC)c(OC)cc4[C@@H]2C3=O)O1 [Rotenone] | 0.269
32 | Oc1ccc(Nc2nc(-c3ccc(Cl)cc3)cs2)cc1 [SKI II] | 2.26
33 | O=C(O)c1cc(N=Nc2ccc(S(=O)(=O)Nc3ccccn3)cc2)ccc1O [Sulfasalazine] | > 10

These compounds were tested on K-562. Conditions: 72 h.
Procedure, shortened: as §1

Row | Compound | IC50 (cell viability) [µM]
34 | CCCCN1C[C@H](O)[C@@H](O)[C@H](O)[C@H]1CO [Miglustat] | > 10
35 | C=C(C=NNC(=N)N)NNC(=N)N [Mitoguazone] | 1.32
36 | CCCCC/C=C\C/C=C\C/C=C\C/C=C\CCCCN1C(=O)C=CC1=O [N-Arachidonylmaleimide] | > 10
37 | CCCCCCCCCCC[C@@H](C[C@@H]1OC(=O)[C@H]1CCCCCC)OC(=O)[C@H](CC(C)C)NC=O [Orlistat] | > 10
38 | COc1ccc(C(=O)Nc2c(Cl)cncc2Cl)cc1OC1CCCC1 [Piclamilast] | > 10
39 | COc1cc(/C=C/C(=O)N2CCC=CC2=O)cc(OC)c1OC [Piperlongumine] | 1.95
40 | O=C(NNc1ccccc1)c1ccncc1 [PluriSln 1] | 9.7
41 | CC(C)c1nc(CN(C)C(=O)N[C@H](C(=O)N[C@@H](Cc2ccccc2)C[C@H](O)[C@H](Cc2ccccc2)NC(=O)OCc2cncs2)C(C)C)cs1 [Ritonavir] | > 10
42 | C=C(C)[C@H]1Cc2c(ccc3c2O[C@@H]2COc4cc(OC)c(OC)cc4[C@@H]2C3=O)O1 [Rotenone] | 0.0407
43 | Oc1ccc(Nc2nc(-c3ccc(Cl)cc3)cs2)cc1 [SKI II] | 2.51
44 | O=C(O)c1cc(N=Nc2ccc(S(=O)(=O)Nc3ccccn3)cc2)ccc1O [Sulfasalazine] | > 10

These compounds were tested on KCL-22. Conditions: 72 h.
Procedure, shortened: as §1

Row | Compound | IC50 (cell viability) [µM]
45 | CCCCN1C[C@H](O)[C@@H](O)[C@H](O)[C@H]1CO [Miglustat] | > 10
46 | C=C(C=NNC(=N)N)NNC(=N)N [Mitoguazone] | 4.4
47 | CCCCC/C=C\C/C=C\C/C=C\C/C=C\CCCCN1C(=O)C=CC1=O [N-Arachidonylmaleimide] | > 10
48 | CCCCCCCCCCC[C@@H](C[C@@H]1OC(=O)[C@H]1CCCCCC)OC(=O)[C@H](CC(C)C)NC=O [Orlistat] | > 10
49 | COc1ccc(C(=O)Nc2c(Cl)cncc2Cl)cc1OC1CCCC1 [Piclamilast] | > 10
50 | COc1cc(/C=C/C(=O)N2CCC=CC2=O)cc(OC)c1OC [Piperlongumine] | 2.92
51 | O=C(NNc1ccccc1)c1ccncc1 [PluriSln 1] | 8.52
52 | CC(C)c1nc(CN(C)C(=O)N[C@H](C(=O)N[C@@H](Cc2ccccc2)C[C@H](O)[C@H](Cc2ccccc2)NC(=O)OCc2cncs2)C(C)C)cs1 [Ritonavir] | > 10
53 | C=C(C)[C@H]1Cc2c(ccc3c2O[C@@H]2COc4cc(OC)c(OC)cc4[C@@H]2C3=O)O1 [Rotenone] | 0.206
54 | Oc1ccc(Nc2nc(-c3ccc(Cl)cc3)cs2)cc1 [SKI II] | 3.07
55 | O=C(O)c1cc(N=Nc2ccc(S(=O)(=O)Nc3ccccn3)cc2)ccc1O [Sulfasalazine] | > 10

These compounds were tested on KG-1. Conditions: 72 h.
Procedure, shortened: as §1

Row | Compound | IC50 (cell viability) [µM]
56 | CCCCN1C[C@H](O)[C@@H](O)[C@H](O)[C@H]1CO [Miglustat] | > 10
57 | C=C(C=NNC(=N)N)NNC(=N)N [Mitoguazone] | 3.31
58 | CCCCC/C=C\C/C=C\C/C=C\C/C=C\CCCCN1C(=O)C=CC1=O [N-Arachidonylmaleimide] | > 10
59 | CCCCCCCCCCC[C@@H](C[C@@H]1OC(=O)[C@H]1CCCCCC)OC(=O)[C@H](CC(C)C)NC=O [Orlistat] | > 10
60 | COc1ccc(C(=O)Nc2c(Cl)cncc2Cl)cc1OC1CCCC1 [Piclamilast] | > 10
61 | COc1cc(/C=C/C(=O)N2CCC=CC2=O)cc(OC)c1OC [Piperlongumine] | 3.33
